Reference: ChEMBL document CHEMBL1201862, “PubChem BioAssay data set” (2004)
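In this assay, cells in 96-well plates receive the compound at five concentrations for 48 hours. Endpoints are linearly interpolated between the surrounding concentrations. GI50 marks 50% less growth.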 Active and inactive are the calls of the source. Cut-off read from the data, not from the text of the source: active = GI50 up to about 1.1 µM and inactive = higher.

Legend:
Experiment in all cases: growth of human tumour cells (NCI), 48 h
[1] = tested on: 786-0
[2] = tested on: CAKI-1
[3] = tested on: HCT-15
[4] = tested on: KM12
[5] = tested on: MCF7
[6] = tested on: MDA-MB-435
[7] = tested on: MDA-N
[8] = tested on: Malme-3M
[9] = tested on: NCI-H23
[10] = tested on: NCI-H460
[11] = tested on: NCI-H522
[12] = tested on: OVCAR-3
[13] = tested on: OVCAR-4
[14] = tested on: PC-3
[15] = tested on: RXF 393
[16] = tested on: SK-MEL-2
[17] = tested on: SNB-19
[18] = tested on: TK-10
[19] = tested on: UACC-257
[20] = tested on: UO-31

| SMILES | GI50 [1] | GI50 [2] | GI50 [3] [µM] | GI50 [4] | GI50 [5] | GI50 [6] | GI50 [7] | GI50 [8] | GI50 [9] | GI50 [10] | GI50 [11] | GI50 [12] | GI50 [13] | GI50 [14] | GI50 [15] | GI50 [16] | GI50 [17] | GI50 [18] | GI50 [19] | GI50 [20] |
| --- | --- | --- | --- | --- | --- | --- | --- | --- | --- | --- | --- | --- | --- | --- | --- | --- | --- | --- | --- | --- |
| CCCCCC(O)C(O)CCC[C@H](O)[C@H]1CC[C@H]([C@H]2CC[C@H]([C@H](O)CCCCCCCCCCCCC3=C[C@H](C)OC3=O)O2)O1 (some centres not stated) | 3.84 µM (inactive) | 5.07 µM (inactive) | 3.81 | 2.21 µM (inactive) | 1.9 µM (inactive) | 1.5 µM (inactive) | 2.83 µM (inactive) | 11.9 µM (inactive) | 1.37 µM (inactive) | 2.43 µM (inactive) | 4.88 µM (inactive) | 2.47 µM (inactive) | 5.11 µM (inactive) | 2.94 µM (inactive) | 7.33 µM (inactive) | 1.76 µM (inactive) | 3.14 µM (inactive) | 2.86 µM (inactive) | 0.597 µM (active) | 1.85 µM (inactive) |
| O=C1NC(=S)N/C1=C\c1ccc(Cl)cc1 | > 100 µM (inactive) | > 100 µM (inactive) | > 100 | 89.7 µM (inactive) | > 100 µM (inactive) | > 100 µM (inactive) | > 100 µM (inactive) | > 100 µM (inactive) | > 100 µM (inactive) | – | > 100 µM (inactive) | > 100 µM (inactive) | 39.2 µM (inactive) | > 100 µM (inactive) | > 100 µM (inactive) | > 100 µM (inactive) | > 100 µM (inactive) | > 100 µM (inactive) | – | 53.7 µM (inactive) |
| Cc1ccc2c(=O)c3c(O)c4c(cc3n(C)c2c1)OC(C)(C)C=C4 | > 10 µM (inactive) | > 10 µM (inactive) | > 10 | > 10 µM (inactive) | > 10 µM (inactive) | > 10 µM (inactive) | > 10 µM (inactive) | > 10 µM (inactive) | > 10 µM (inactive) | > 10 µM (inactive) | > 10 µM (inactive) | > 10 µM (inactive) | > 10 µM (inactive) | > 10 µM (inactive) | > 10 µM (inactive) | > 10 µM (inactive) | > 10 µM (inactive) | > 10 µM (inactive) | > 10 µM (inactive) | – |
| CN(C)Cc1cc(/N=N/c2ccccc2Cl)ccc1O | 15.5 µM (inactive) | 15.1 µM (inactive) | 20.1 | 25.9 µM (inactive) | 16.8 µM (inactive) | 17.7 µM (inactive) | 17.5 µM (inactive) | 12.6 µM (inactive) | 24.7 µM (inactive) | 5.98 µM (inactive) | 10.6 µM (inactive) | 18 µM (inactive) | 52.6 µM (inactive) | 27.5 µM (inactive) | 20.3 µM (inactive) | – | 32.2 µM (inactive) | 22.1 µM (inactive) | 21.1 µM (inactive) | 12.9 µM (inactive) |
| CC(C)[C@H](NC(=O)OCc1ccccc1)C(=O)N[C@H](/C=C/C(=O)OC(C)(C)C)CO | 65.6 µM (inactive) | > 100 µM (inactive) | > 100 | > 100 µM (inactive) | > 100 µM (inactive) | > 100 µM (inactive) | > 100 µM (inactive) | > 100 µM (inactive) | > 100 µM (inactive) | > 100 µM (inactive) | > 100 µM (inactive) | > 100 µM (inactive) | > 100 µM (inactive) | 68.1 µM (inactive) | > 100 µM (inactive) | > 100 µM (inactive) | > 100 µM (inactive) | > 100 µM (inactive) | > 100 µM (inactive) | – |
| CC(=O)c1sc2c(c1OC(=O)c1cccs1)c(=O)n(-c1ccccc1)c(=S)n2-c1ccccc1 | 4.75 µM (inactive) | 30.8 µM (inactive) | 17.5 | 23 µM (inactive) | 21 µM (inactive) | 8.24 µM (inactive) | 5.5 µM (inactive) | 2.8 µM (inactive) | 19.3 µM (inactive) | 12.3 µM (inactive) | 0.359 µM (active) | 23 µM (inactive) | 22 µM (inactive) | 3.63 µM (inactive) | 3.86 µM (inactive) | – | 12.5 µM (inactive) | 23.7 µM (inactive) | 11.7 µM (inactive) | – |
| S=c1oc(CCCCCCCCc2nn(CNc3ccc(Cl)cc3)c(=S)o2)nn1CNc1ccc(Cl)cc1 | > 100 µM (inactive) | 33.8 µM (inactive) | > 100 | 35.8 µM (inactive) | > 100 µM (inactive) | 10.4 µM (inactive) | 43.4 µM (inactive) | > 100 µM (inactive) | 99.3 µM (inactive) | > 100 µM (inactive) | > 100 µM (inactive) | – | > 100 µM (inactive) | 29.3 µM (inactive) | > 100 µM (inactive) | > 100 µM (inactive) | > 100 µM (inactive) | > 100 µM (inactive) | 40 µM (inactive) | 97.3 µM (inactive) |
| CCOC(=O)C1=C(C)N(C)C(=S)NC1c1cccc(O)c1 (configuration not stated) | 37.9 µM (inactive) | 56.6 µM (inactive) | 30.3 | 29 µM (inactive) | 29.6 µM (inactive) | 12.5 µM (inactive) | 14.6 µM (inactive) | – | 26.4 µM (inactive) | 38.2 µM (inactive) | 25.2 µM (inactive) | 36.1 µM (inactive) | 36.3 µM (inactive) | 38.5 µM (inactive) | 24.3 µM (inactive) | 34.3 µM (inactive) | 54.3 µM (inactive) | > 100 µM (inactive) | 43.3 µM (inactive) | 81.5 µM (inactive) |
| Cc1ccc(Cc2n[nH]c(=O)n2/N=C\CC/C=N\n2c(Cc3ccc(C)cc3)n[nH]c2=O)cc1 | 18.5 µM (inactive) | > 100 µM (inactive) | 26 | > 100 µM (inactive) | 23.9 µM (inactive) | 36.3 µM (inactive) | 37.1 µM (inactive) | 33.2 µM (inactive) | 26.9 µM (inactive) | – | > 100 µM (inactive) | > 100 µM (inactive) | > 100 µM (inactive) | 31.3 µM (inactive) | 20.9 µM (inactive) | 28 µM (inactive) | 39.6 µM (inactive) | > 100 µM (inactive) | 57.4 µM (inactive) | > 100 µM (inactive) |
| O=c1oc2c(Br)c(O)c(Br)cc2c2ccccc12 | 42.1 µM (inactive) | 16 µM (inactive) | 19.2 | – | 16.3 µM (inactive) | 36.6 µM (inactive) | 31.5 µM (inactive) | 26.5 µM (inactive) | 15.6 µM (inactive) | 24 µM (inactive) | 15.8 µM (inactive) | 16.5 µM (inactive) | 29.7 µM (inactive) | 21 µM (inactive) | 38.6 µM (inactive) | 28.2 µM (inactive) | 30.3 µM (inactive) | 34.9 µM (inactive) | 18 µM (inactive) | – |
| CCN(CC)c1ccc2cc(C(N)=S)c(=N)oc2c1 | > 100 µM (inactive) | > 100 µM (inactive) | > 100 | > 100 µM (inactive) | > 100 µM (inactive) | > 100 µM (inactive) | > 100 µM (inactive) | 87.9 µM (inactive) | – | > 100 µM (inactive) | > 100 µM (inactive) | – | > 100 µM (inactive) | > 100 µM (inactive) | > 100 µM (inactive) | > 100 µM (inactive) | > 100 µM (inactive) | > 100 µM (inactive) | > 100 µM (inactive) | > 100 µM (inactive) |
| OCC(CN1CCCCC1)(CN1CCCCC1)CN1CCCCC1 | > 100 µM (inactive) | > 100 µM (inactive) | > 100 | > 100 µM (inactive) | > 100 µM (inactive) | > 100 µM (inactive) | > 100 µM (inactive) | > 100 µM (inactive) | > 100 µM (inactive) | > 100 µM (inactive) | > 100 µM (inactive) | > 100 µM (inactive) | > 100 µM (inactive) | > 100 µM (inactive) | > 100 µM (inactive) | – | > 100 µM (inactive) | > 100 µM (inactive) | > 100 µM (inactive) | > 100 µM (inactive) |
| CC(C)c1ccc(/C=C2\N=C(c3ccc([N+](=O)[O-])cc3)OC2=O)cc1 | > 100 µM (inactive) | > 100 µM (inactive) | > 100 | > 100 µM (inactive) | > 100 µM (inactive) | > 100 µM (inactive) | > 100 µM (inactive) | 60.3 µM (inactive) | > 100 µM (inactive) | > 100 µM (inactive) | > 100 µM (inactive) | > 100 µM (inactive) | > 100 µM (inactive) | > 100 µM (inactive) | 14.9 µM (inactive) | > 100 µM (inactive) | > 100 µM (inactive) | > 100 µM (inactive) | > 100 µM (inactive) | – |
| Cc1cc(C2(c3cc(C)c(O)c(C(=O)O)c3)OS(=O)(=O)c3ccccc32)cc(C(=O)O)c1O | > 100 µM (inactive) | > 100 µM (inactive) | > 100 | > 100 µM (inactive) | > 100 µM (inactive) | > 100 µM (inactive) | > 100 µM (inactive) | > 100 µM (inactive) | – | > 100 µM (inactive) | > 100 µM (inactive) | > 100 µM (inactive) | > 100 µM (inactive) | > 100 µM (inactive) | > 100 µM (inactive) | > 100 µM (inactive) | > 100 µM (inactive) | > 100 µM (inactive) | > 100 µM (inactive) | > 100 µM (inactive) |
| CC(=O)/C=N/CC(=O)O | > 100 µM (inactive) | > 100 µM (inactive) | > 100 | > 100 µM (inactive) | > 100 µM (inactive) | > 100 µM (inactive) | > 100 µM (inactive) | > 100 µM (inactive) | > 100 µM (inactive) | > 100 µM (inactive) | > 100 µM (inactive) | > 100 µM (inactive) | > 100 µM (inactive) | > 100 µM (inactive) | > 100 µM (inactive) | > 100 µM (inactive) | > 100 µM (inactive) | > 100 µM (inactive) | > 100 µM (inactive) | – |
